Data taken from publication PMC10333884, “Large‐scale phosphomimetic screening identifies phospho‐modulated motif‐based protein interactions” (Molecular Systems Biology, 2023).
Non-standard residues stand in square brackets, D forms with d. Residues, ends and D or L forms follow the SMILES beside them. pT = C[C@@H](OP(=O)(O)O)[C@H](N)C(=O)O; pS = N[C@@H](COP(=O)(O)O)C(=O)O

target: T1, PDCD6IP Alix V domain (Homo sapiens, UniProt Q8WUM4); assay: FP displacement assay, PDCD6IP Alix V domain; format: binding; details: probe FITC-HIV1_Gag 5 nM, 50 mM sodium phosphate pH 7.4, room temperature, at least three technical replicates, read-out: KD values ± SEM
T1 construct: GST (cleaved yes); made in house; host or cells: Escherichia coli BL21-Gold(DE3)
T1 sequence (Q8WUM4 360-702): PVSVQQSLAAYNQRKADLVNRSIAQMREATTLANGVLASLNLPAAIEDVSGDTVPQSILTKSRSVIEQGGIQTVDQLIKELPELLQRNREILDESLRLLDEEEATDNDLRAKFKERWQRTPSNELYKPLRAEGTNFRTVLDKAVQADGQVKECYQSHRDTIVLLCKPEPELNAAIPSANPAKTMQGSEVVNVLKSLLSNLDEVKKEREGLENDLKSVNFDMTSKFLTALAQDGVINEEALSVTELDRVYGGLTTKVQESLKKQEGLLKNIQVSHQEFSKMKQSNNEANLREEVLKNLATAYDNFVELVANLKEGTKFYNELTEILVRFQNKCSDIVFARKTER
Experimental: (§1) FP experiments were performed as described previously (Kliche et al, [2021]). Shortly, in order to monitor the binding event, FITC‐labelled peptides were used (excitation 495 nm, emission: 535 nm) and the FP signal was recorded in mP on a SpectraMax iD5 Multi‐Mode Microplate Reader (Molecular Devices) by measuring the emitted light in two angels. The measurements were performed at room temperature and prepared in nonbinding black half area 96‐well microplates (Corning®; 50 μl/well). For measuring direct binding, that is saturation curves, a 1:1 dilution series of protein domain (25 μl/well) was generated in 50 mM sodium phosphate buffer pH 7.4 and the measurement performed with 5 nM FITC‐labelled peptide (25 μl/well). The buffer‐corrected values were subsequently plotted with PRISM and fitted to the quadratic equation (Gianni et al, [2005]).
(§2) The 1:1 dilution series in this experiment was performed with the unlabelled peptide in 50 mM sodium phosphate buffer pH 7.4, so that each well‐contained unlabelled peptide (25 μl) at a certain concentration and pre‐formed complex (25 μl). The KD values of this indirectly monitored binding event were calculated as described previously (Nikolovska‐Coleska et al, [2004]). All measurements were at least in technical triplicates as well as biological duplicates when indicated. An amplitude shift between repeat measurements in the displacement experiments was occasionally observed due to variations in the protein preparations. If that was the case, the “active” protein concentration was back‐calculated according to the quadratic equation from the saturation curves performed in parallel. By comparing the active protein concentrations in the complex between different protein preparations, the amplitude was normalised.

Compared with `CC[C@H](C)[C@H](NC(=O)[C@H](CCCCN)NC(=O)[C@H](CC(C)C)NC(=O)[C@@H]1CCCN1C(=O)[C@H](COP(=O)(O)O)NC(=O)[C@@H](NC(=O)[C@H](CCC(N)=O)NC(=O)[C@@H]1CCCN1C(=O)[C@H](Cc1ccc(O)cc1)NC(=O)[C@H](CC(C)C)NC(=O)[C@@H]1CCCN1C(=O)[C@H](CCCNC(=N)N)NC(=O)[C@H](CC(C)C)NC(=O)[C@@H]1CCCN1C(=O)[C@H](CO)NC(=O)[C@H](C)NC(C)=O)[C@@H](C)CC)C(N)=O` [FOXK1_212–227 pS] (Ac-ASPLRPLYPQI[pS]PLKI-NH2), `CC[C@H](C)[C@H](NC(=O)[C@H](CCCCN)NC(=O)[C@H](CC(C)C)NC(=O)[C@@H]1CCCN1C(=O)[C@H](CO)NC(=O)[C@@H](NC(=O)[C@H](CCC(N)=O)NC(=O)[C@@H]1CCCN1C(=O)[C@H](Cc1ccc(O)cc1)NC(=O)[C@H](CC(C)C)NC(=O)[C@@H]1CCCN1C(=O)[C@H](CCCNC(=N)N)NC(=O)[C@H](CC(C)C)NC(=O)[C@@H]1CCCN1C(=O)[C@H](CO)NC(=O)[C@H](C)NC(C)=O)[C@@H](C)CC)C(N)=O` [FOXK1_212–227 wt] (Ac-ASPLRPLYPQISPLKI-NH2) is 1.9-fold higher in Kd: 13 ± 2 µM for the first, 25 ± 3 µM for the second.

First: CC(=O)N[C@H](C(=O)N[C@@H](COP(=O)(O)O)C(=O)N1CCC[C@H]1C(=O)N[C@@H](CC(C)C)C(=O)N[C@H](C(=O)N[C@@H](CO)C(=O)N[C@@H](CC(C)C)C(=O)N[C@@H](Cc1ccc(O)cc1)C(=O)N1CCC[C@H]1C(=O)N[C@@H](C)C(=O)N[C@@H](CC(C)C)C(=O)N[C@@H](CCC(=O)O)C(=O)N[C@@H](C)C(=O)N[C@@H](CCCNC(=N)N)C(=O)N[C@@H](C)C(=O)N[C@@H](CC(C)C)C(N)=O)C(C)C)[C@@H](C)O [OTUD5_507–522 pS] (Ac-T[pS]PLVSLYPALEARAL-NH2)
Second: CC(=O)N[C@H](C(=O)N[C@@H](CO)C(=O)N1CCC[C@H]1C(=O)N[C@@H](CC(C)C)C(=O)N[C@H](C(=O)N[C@@H](CO)C(=O)N[C@@H](CC(C)C)C(=O)N[C@@H](Cc1ccc(O)cc1)C(=O)N1CCC[C@H]1C(=O)N[C@@H](C)C(=O)N[C@@H](CC(C)C)C(=O)N[C@@H](CCC(=O)O)C(=O)N[C@@H](C)C(=O)N[C@@H](CCCNC(=N)N)C(=O)N[C@@H](C)C(=O)N[C@@H](CC(C)C)C(N)=O)C(C)C)[C@@H](C)O [OTUD5_507–522 wt] (Ac-TSPLVSLYPALEARAL-NH2)
The Kd of the first is 1.7-fold higher: 116 ± 20 µM for the first, 68 ± 6 µM for the second.

target: T2, RANBP2 RanBD4 (Homo sapiens, UniProt P49792); assay: FP displacement assay, RANBP2 RanBD4; format: binding; details: probe FITC-C7orf25 5 nM, 50 mM sodium phosphate pH 7.4, room temperature, at least three technical replicates, read-out: KD values ± SEM
T2 construct: GST (cleaved yes); made in house; host or cells: Escherichia coli BL21-Gold(DE3)
T2 sequence (P49792 2924-3050): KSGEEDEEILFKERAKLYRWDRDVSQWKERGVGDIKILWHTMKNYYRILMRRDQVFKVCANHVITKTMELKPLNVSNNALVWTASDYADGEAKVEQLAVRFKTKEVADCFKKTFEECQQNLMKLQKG
Experimental: as §1, §2

Compared with `CC(=O)N[C@@H](CCCCN)C(=O)N[C@@H](Cc1ccc(O)cc1)C(=O)N[C@@H](CO)C(=O)N[C@@H](CC(=O)O)C(=O)N[C@@H](CC(=O)O)C(=O)N[C@H](C(=O)N1CCC[C@H]1C(=O)N[C@@H](CC(C)C)C(=O)N1CCC[C@H]1C(=O)N[C@H](C(=O)N1CCC[C@H]1C(=O)N[C@@H](CO)C(=O)N[C@@H](Cc1ccc(O)cc1)C(=O)N[C@@H](CCCCN)C(=O)N[C@@H](Cc1ccc(O)cc1)C(=O)N[C@@H](CC(N)=O)C(N)=O)[C@@H](C)OP(=O)(O)O)[C@@H](C)O` [DHX38_260–275 pS] (Ac-KYSDDTPLP[pT]PSYKYN-NH2), `CC(=O)N[C@@H](CCCCN)C(=O)N[C@@H](Cc1ccc(O)cc1)C(=O)N[C@@H](CO)C(=O)N[C@@H](CC(=O)O)C(=O)N[C@@H](CC(=O)O)C(=O)N[C@H](C(=O)N1CCC[C@H]1C(=O)N[C@@H](CC(C)C)C(=O)N1CCC[C@H]1C(=O)N[C@H](C(=O)N1CCC[C@H]1C(=O)N[C@@H](CO)C(=O)N[C@@H](Cc1ccc(O)cc1)C(=O)N[C@@H](CCCCN)C(=O)N[C@@H](Cc1ccc(O)cc1)C(=O)N[C@@H](CC(N)=O)C(N)=O)[C@@H](C)O)[C@@H](C)O` [DHX38_260–275 wt] (Ac-KYSDDTPLPTPSYKYN-NH2) is 9-fold higher in Kd: 167 ± 21 µM for the first, 1500 µM for the second. The first binds more tightly here.

For `CC(=O)N[C@@H](Cc1c[nH]cn1)C(=O)N[C@@H](CC(C)C)C(=O)N1CCC[C@H]1C(=O)N[C@@H](CC(C)C)C(=O)N[C@@H](CC(N)=O)C(=O)N[C@@H](COP(=O)(O)O)C(=O)N1CCC[C@H]1C(=O)N[C@@H](CC(C)C)C(=O)N1CCC[C@H]1C(=O)NCC(=O)N[C@@H](CO)C(=O)N[C@@H](CCC(=O)O)C(=O)N[C@@H](CC(C)C)C(=O)N[C@H](C(=O)N[C@@H](CCCCN)C(=O)N[C@@H](Cc1ccc(O)cc1)C(N)=O)[C@@H](C)O` [INTS6_145–159 pS] (Ac-HLPLN[pS]PLPGSELTKY-NH2), the Kd was 733 ± 128 µM.
